Structures can show the parent of a compound that is named as a salt.
System: Pancreatic β cell line MIN6 cells
Assay: Insulin secretion stimulating activity in cultured β cells (MIN6), insulin in the supernatant by enzyme immunoassay or radioimmunoassay
Format: cell-based
Conditions: drug concentration 1.0 μmol/L, 14.5 mmol/L glucose, 45 min after stimulation, average of 3 to 4 tests, None (no drug) 148.4
Method: Insulin Secretion Stimulating Activity in Cultured β Cells
Pancreatic β cell line MIN6 cells reported by Miyazaki, et al. [see Endocrinology, (1990) 127, p. […] 1139-1145]. In MIN6 cells, insulin secretion increase responding to a sulfonylurea agents, such as Glybenclamide, which are used as a therapeutic agent for diabetes (Cellular Signaling, (1993) 5, p. 777-786). Therefore, the above-mentioned culture of MIN6 cells and an insulin secretion test using the MIN6 cells were performed according to the method described in Diabetologia, (1993) 36, p. 1139-1145.
The effects of a compound on an insulin secretion activity under the presence of 14.5 mmol/L glucose was determined by measuring insulin amount in cell-culture supernatant collected as follows:
MIN6 cells cultured in a 24-well plate were washed twice with 1 mL of buffer solution A (pH 7.3) containing 2 mmol/L glucose. Buffer solution A consists of 119 mmol/L sodium chloride, 4.74 mmol/L potassium chloride, 2.54 mmol/L calcium chloride, 1.19 mmol/L magnesium sulfate, 1.19 mmol/L potassium dihydrogen phosphate, 10 mmol/L 2-[4-(2-hyroxyethyl)-1-piperazinyl]ethane sulfonic acid and 0.1% bovine serum albumin. Then, the cells were incubated in 1 mL of buffer solution A containing 2 mmol/L glucose at 37° C. for 45 minutes. After the incubation, the culture supernatant was exchanged with 0.9 mL of buffer solution A containing each test compound at various concentrations and 2 mmol/L glucose. The cells were further incubated at 37° C. for 15 minutes. Then, the MIN6 cells were stimulated with glucose by adding 0.1 mL of buffer solution A containing 127 mmol/L glucose (a final glucose concentration: 14.5 mmol/L). After the stimulation, the cells were further incubated at 37° C. for 45 minutes, and the supernatant was collected.
Antibody reactive insulin secreted in the culture supernatant was diluted with a phosphate buffer solution containing 1% bovine serum albumin, 0.1% Tween 20, 0.12% ethylenediaminetetraacetic acid (EDTA) disodium salt and 0.1% sodium azide, and then quantitatively measured by enzyme immunoassay or radioimmunoassay. The insulin levels were indicated as the amount of human insulin (ng/mLY. The results are indicated by averages (avg) and standard errors (se) of 3 to 4 tests.

SMILES	Insulin secretion content (ng/mL) ave [ng/mL]
CCCN1C(=O)N2C[C@@H](Cc3ccccc3)N=C2c2cc(-c3ccccc3)[nH]c21 [Compound 1, (R)-2-Benzyl-2,3-dihydro-8-phenyl-6-propyl-7H-imidazo[1,2-c]pyrrolo[3,2-e]pyrimidin-5(6H)-one]	204.3
CCCN1C(=O)N2C[C@@H](Cc3ccccc3)N=C2c2[nH]c(-c3ccccc3)cc21 [Compound 2, (R)-8-Benzyl-7,8-dihydro-2-phenyl-4-propyl-1H-imidazo[1,2-c]pyrrolo[2,3-e]pyrimidin-5(4H)-one]	187.1
CCCN1C(=O)N2C[C@@H](Cc3ccccc3)N=C2c2cn(-c3ccccc3)nc21 [Compound 3, (R)-2-Benzyl-2,3-dihydro-8-phenyl-6-propyl-8H-imidazo[1,2-c]pyrazolo[4,3-e]pyrimidin-5(6H)-one]	213.2
CCCN1C(=O)N2CC(Cc3ccc(F)cc3)N=C2c2cn(-c3ccccc3)nc21 (stereo not shown) [Compound 4, 2-(4-Fluorobenzyl)-2,3-dihydro-8-phenyl-6-propyl-8H-imidazo[1,2-c]pyrazolo[4,3-e]pyrimidin-5(6H)-one]	212.1
CCCN1C(=O)N2CC(Cc3ccc(Cl)cc3)N=C2c2cn(-c3ccccc3)nc21 (stereo not shown) [Compound 5, 2-(4-Chlorobenzyl)-2,3-dihydro-8-phenyl-6-propyl-8H-imidazo[1,2-c]pyrazolo[4,3-e]pyrimidin-5(6H)-one]	190.9
CCCN1C(=O)N2CC(Cc3ccncc3)N=C2c2cn(-c3ccccc3)nc21 (stereo not shown) [Compound 6, 2,3-Dihydro-8-phenyl-6-propyl-2-(4-picolyl)-8H-imidazo[1,2-c]pyrazolo[4,3-e]pyrimidin-5(6H)-one]	172.5
CCCN1C(=O)N2C[C@@H](Cc3ccccc3)N=C2c2cn(C3CCCC3)nc21 [Compound 7, (R)-2-Benzyl-8-cyclopentyl-2,3-dihydro-6-propyl-8H-imidazo[1,2-c]pyrazolo[4,3-e]pyrimidin-5(6H)-one hydrochloride]	224.8
CCCN1C(=O)N2C[C@@H](Cc3ccncc3)N=C2c2cn(C3CCCC3)nc21 [Compound 8, (R)-8-Cyclopentyl-2,3-dihydro-6-propyl-2-(4-picolyl)-8H-imidazo[1,2-c]pyrazolo[4,3-e]pyrimidin-5(6H)-one]	183.9
CCCN1C(=O)N2C[C@@H](Cc3ccccc3)N=C2c2nn(-c3ccccc3)cc21 [Compound 9, (R)-8-Benzyl-7,8-dihydro-2-phenyl-4-propyl-2H-imidazo[1,2-c]pyrazolo[3,4-e]pyrimidin-5(4H)-one]	174.3
CCCN1C(=O)N2C[C@@H](Cc3ccccc3)N=C2c2nn(C3CCCC3)cc21 [Compound 10, (R)-8-Benzyl-2-cyclopentyl-7,8-dihydro-4-propyl-2H-imidazo[1,2-c]pyrazolo[3,4-e]pyrimidin-5(4H)-one hydrochloride]	184.7

— patent publication US20060252780A1, “Fused pyrimidine derivatives” (Kyowa Hakko Kogyo Co., Ltd., priority 2003, published 2006)
